Reference: US20250011307A1, “CRYSTALLINE FORMS OF BIARYL YAP/TAZ-TEAD PROTEIN-PROTEIN INTERACTION INHIBITORS” (Novartis AG, priority 2021, published 2025)

How the values were obtained:
Format in all cases: physicochemical
[1] = Xenon light stress test of bulk (HPLC degradation products, color, XRPD); set-up: key to CL color: A: No change; B: Slight discoloration; C: Medium discoloration; D: Strong discoloration; settings: Compound B forms, Xenon light (1200 kLuxh, 25° C.)
Procedure: (§1) X-ray powder diffraction (XRPD) patterns were obtained using a Bruker Advance D8 in reflection geometry. Powders were analyzed using a zero background Si flat sample holder. The radiation used was Cu Kα (A=1.5418 Å). Patterns were measured between 2° and 40° 2theta. • Sample amount: 5-10 mg • Sample holder: zero background Si flat sample holder
as §1, with “radiation” for “radiation used”, “(λ=1.5418” for “(A=1.5418”

[2] = Excipient compatibility stress test (HPLC degradation products, color); set-up: key to CL color: A: No change; B: Slight discoloration; C: Medium discoloration; D: Strong discoloration; settings: Compound B forms
[3] = Solubility after equilibration at 25° C. for 24 h, with final pH and XRPD of solid residues; settings: Compound B forms
[4] = Hygroscopicity (loss on drying by TGA and XRPD, as is and after storage at 92% / 80% RH); settings: Compound B forms, TGA temperature per cell: free form @233° C., succinate @205° C., L-malate @200° C., L-lactate @200° C.
[5] = Solid state bulk stability stress test (HPLC degradation products, color, XRPD); set-up: key to CL color: A: No change; B: Slight discoloration; C: Medium discoloration; D: Strong discoloration; settings: Compound B forms
[6] = 2 weeks 50° C./75% RH, 1% in HGC powder
[7] = 2 weeks 50° C./75% RH, 1% in HPMC powder
[8] = 2 weeks 50° C./closed, 1% in HGC powder
[9] = 2 weeks 50° C./closed, 1% in HPMC powder

CNC[C@]1(c2ccccc2)Oc2cc(F)c(Cl)c(-c3c(C(N)=O)ccc(OC)c3F)c2[C@@H]1C [Compound B Free form, amorphous, 2-((2S,3S,4S)-5-Chloro-6-fluoro-3-methyl-2-((methylamino)methyl)-2-phenyl-2,3-dihydrobenzofuran-4-yl)-3-fluoro-4-methoxybenzamide]
Bulk amber vial (XRPD) ([1]; amber vial): No change
CL color ([1]; amber vial): A
DP[%] degradation products, Bulk amber vial (HPLC) ([1]; amber vial): 0.19%
Bulk clear quartz vial (XRPD) ([1]; clear quartz vial): No change
CL color ([1]; clear quartz vial): C
DP[%] degradation products, Bulk clear quartz vial (HPLC) ([1]; clear quartz vial): 2.74%
CL color [2, 6]: A
DP[%] degradation products [2, 6]: 2.50%
CL color [2, 7]: A
DP[%] degradation products [2, 7]: 4.33%
CL color [2, 8]: A
DP[%] degradation products [2, 8]: 1.87%
CL color [2, 9]: A
DP[%] degradation products [2, 9]: 2.02%
final pH ([3]; Blank FaSSIF): [7.36]
Sol. (solubility) ([3]; Blank FaSSIF, target concentration 2 mg/mL): 1490 µg/mL
final pH ([3]; FaSSIF V2 pH 6.5): [7.19]
Sol. (solubility) ([3]; FaSSIF V2 pH 6.5, target concentration 2 mg/mL): 1150 µg/mL
final pH ([3]; FeSSIF V2 pH 5.8): [6.01]
Sol. (solubility) ([3]; FeSSIF V2 pH 5.8, target concentration 2 mg/mL): >2000 µg/mL
final pH ([3]; SGF pH 2.0): [2.22]
Sol. (solubility) ([3]; SGF pH 2.0, target concentration 2 mg/mL): >2000 µg/mL
final pH ([3]; Water): [8.78]
Sol. (solubility) ([3]; Water, target concentration 2 mg/mL): 70 µg/mL
final pH ([3]; pH 1.2, 100 mM HCl): [1.16]
Sol. (solubility) ([3]; pH 1.2, 100 mM HCl, target concentration 2 mg/mL): >2000 µg/mL
final pH ([3]; pH 3.0, 50 mM citrate buffer): [3.08]
Sol. (solubility) ([3]; pH 3.0, 50 mM citrate buffer, target concentration 2 mg/mL): >2000 µg/mL
final pH ([3]; pH 4.7, 50 mM acetate buffer): [4.84]
Sol. (solubility) ([3]; pH 4.7, 50 mM acetate buffer, target concentration 2 mg/mL): >2000 µg/mL
final pH ([3]; pH 6.8, 50 mM phosphate buffer): [6.90]
final pH ([3]; pH 6.8, 50 mM phosphate buffer with 50 mM Na taurocholate): [6.72]
Sol. (solubility) ([3]; pH 6.8, 50 mM phosphate buffer with 50 mM Na taurocholate, target concentration 2 mg/mL): >2000 µg/mL
Sol. (solubility) ([3]; pH 6.8, 50 mM phosphate buffer, target concentration 2 mg/mL): >2000 µg/mL
Loss on drying by TGA ([4]; After 1 day at 92% RH): 2.14%@233 °C
Loss on drying by TGA ([4]; Hygroscopicity, As is): 1.30%@233 °C
Bulk (XRPD) ([5]; 2 weeks 50° C./75% RH): gel-like
CL color ([5]; 2 weeks 50° C./75% RH): A
DP[%] degradation products, Bulk (HPLC) ([5]; 2 weeks 50° C./75% RH): 4.84%
Bulk (XRPD) ([5]; 2 weeks 80° C./11% RH): gel-like
CL color ([5]; 2 weeks 80° C./11% RH): C
DP[%] degradation products, Bulk (HPLC) ([5]; 2 weeks 80° C./11% RH): 13.00%
Bulk (XRPD) ([5]; 2 weeks 80° C./75% RH): gel-like
CL color ([5]; 2 weeks 80° C./75% RH): C
DP[%] degradation products, Bulk (HPLC) ([5]; 2 weeks 80° C./75% RH): 14.88%
